{"source": "patent US9822190B2", "about": "“Compositions and method for anti-sickling of red blood cells in sickle cell disease” (priority 2015, dated 2017)", "key": {"[1]": {"test_system": "RBC from SCD subjects", "assay": "Anti-sickling of RBC from SCD subjects under hypoxia (blood smears)", "assay_type": "cell-based, human", "details": "for anti-sickling (average): 10 ug/ml blood", "procedure": "(§1) Red Blood Cell (RBC) sickling were studied in blood samples obtained from 12 sickle cell subjects and 6 samples from healthy volunteers matched in terms of age and gender. The blood samples from the subjects were withdrawn and mixed into EDTA tube (10 ml), and then divided into 2 tubes 4-5 ml each (One containing S-NACH 10-100 ug/ml blood added at 10 ul/1 ml blood or PBS buffer solution).\n(§2) Blood samples were incubated for 2-3 hours at room temperature and then blood smears were obtained for monitoring shape of RBCs (take photos for later quantitation number of normal vs. sickle RBCs). Then blood samples were centrifuged to get the plasma, and the plasma were frozen for further testing of various biomarkers."}, "[2]": {"test_system": "RBC from healthy subjects", "assay": "Effect on morphology of RBC from healthy subjects", "assay_type": "cell-based, human", "procedure": "as §1, §2"}, "[3]": {"assay": "Plasma tinzaparin level after oral administration to mice (colorimetric assay)", "assay_type": "in vivo", "details": "oral gavage, 1.6 mg/kg", "procedure": "Nanoformulated LMWH as shown in Examples 1-5 were administered orally to mice versus standard LMWH at the same dose. Blood samples were withdrawn at different time and plasma levels of LMWH were measured using colorimetric assay.\nFIG. 11 is a graph of plasma tinzaparin level versus time profiles in mice with formulations administered by oral gavage into the mice at dose of 1.6 mg/kg, in accordance with embodiments of the present invention. Graphs for Tinzaparin, and Chitosan NPs with positive charge and with negative charge are shown. Data are shown as mean±SD (n=4)."}}, "note": "Entries after “also recorded” stand apart in the source; their conditions may differ."}
{"compound": "OC[C@H]1O[C@@](CO)(O[C@H]2O[C@H](CO)[C@@H](O)[C@H](O)[C@H]2O)[C@@H](O)[C@@H]1O", "note": "[sucrose, reference compound]", "values": [{"measurement": "effect on the average % of sickle RBC", "setting": "[1]; Patient #7, over 2-4 hours hypoxia at 25 degree centigrade", "result": "no significant effect"}, {"measurement": "effect on the sickling", "setting": "[1]; Patient #7 acute crisis, hypoxia 2-4 hours at 25 degree centigrade", "result": "no significant effect"}]}
{"compound": "Sulfated Non-Anticoagulant Heparin [SNACH]", "values": [{"measurement": "effect on normal morphology of RBC", "setting": "[2]", "result": "no effect; also recorded: without any effect"}, {"measurement": "anti-sickling (average)", "setting": "[1]; hypoxia 2-4 hours at 25 degree centigrade, SCD subject #5", "result": "> 90", "unit": "%"}, {"measurement": "anti-sickling (average)", "setting": "[1]; hypoxia 2-4 hours at 25 degree centigrade, SCD subjects", "result": "> 90", "unit": "%"}, {"measurement": "formation of irreversibly sickled cells", "setting": "[1]; 2-24 hours incubation under 95% N2/5% CO2, high concentration", "result": "significantly decreased"}]}
{"compound": "Tinzaparin [standard tinzaparin]", "values": [{"measurement": "blood levels after oral administration", "setting": "[3]", "result": "no detectable blood levels"}]}
